Source: ChEMBL document CHEMBL1909046, “DrugMatrix in vitro pharmacology data”

How the values were obtained:
Cytochrome P450 3A4 = Cytochrome P450 3A4 (Homo sapiens, UniProt P08684); conditions: bti-tn-5b1-4; also: in other assays of this panel Not Active means under 50% inhibition at 10 µM
Cytochrome P450 2C9 = Cytochrome P450 2C9 (Homo sapiens, UniProt P11712); conditions: bti-tn-5b1-4; also: in other assays of this panel Not Active means under 50% inhibition at 10 µM
[1] = target: Beta-1 adrenergic receptor (Homo sapiens, UniProt P08588); experiment: DRUGMATRIX: Adrenergic beta1 radioligand binding (ligand: [125I] Cyanopindolol); format: cell membranes, CHO-K1, Membrane; conditions: cho-k1; Not Active = under 50% inhibition at 10 µM
Sequence of Beta-1 adrenergic receptor (P08588 whole entry): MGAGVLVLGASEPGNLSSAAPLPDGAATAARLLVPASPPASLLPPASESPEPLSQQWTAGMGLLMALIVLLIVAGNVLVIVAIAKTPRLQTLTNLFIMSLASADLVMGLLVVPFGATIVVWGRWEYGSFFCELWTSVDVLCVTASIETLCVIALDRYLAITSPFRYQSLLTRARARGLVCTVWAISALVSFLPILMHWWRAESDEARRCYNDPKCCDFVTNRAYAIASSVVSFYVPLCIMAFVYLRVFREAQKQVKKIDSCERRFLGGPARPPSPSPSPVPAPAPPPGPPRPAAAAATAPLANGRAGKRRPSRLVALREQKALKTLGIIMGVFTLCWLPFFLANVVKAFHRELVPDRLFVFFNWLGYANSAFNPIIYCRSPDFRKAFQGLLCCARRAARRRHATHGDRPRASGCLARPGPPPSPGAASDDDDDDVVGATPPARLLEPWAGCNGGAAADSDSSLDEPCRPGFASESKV

[2] = DRUGMATRIX: Phosphodiesterase PDE4 enzyme inhibition (substrate: [3H]cAMP + cAMP); conditions: u-937; Not Active = under 50% inhibition at 10 µM
[3] = target: Matrix metalloproteinase-9 (Homo sapiens, UniProt P14780); format: cell-based;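 also: inhibition of isolated MMP-9 enzyme activity toward a synthetic peptide substrate, from the DrugMatrix protease screening panel; in other assays of this panel Not Active means under 50% inhibition at 10 µM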
Sequence of Matrix metalloproteinase-9 (P14780 whole entry): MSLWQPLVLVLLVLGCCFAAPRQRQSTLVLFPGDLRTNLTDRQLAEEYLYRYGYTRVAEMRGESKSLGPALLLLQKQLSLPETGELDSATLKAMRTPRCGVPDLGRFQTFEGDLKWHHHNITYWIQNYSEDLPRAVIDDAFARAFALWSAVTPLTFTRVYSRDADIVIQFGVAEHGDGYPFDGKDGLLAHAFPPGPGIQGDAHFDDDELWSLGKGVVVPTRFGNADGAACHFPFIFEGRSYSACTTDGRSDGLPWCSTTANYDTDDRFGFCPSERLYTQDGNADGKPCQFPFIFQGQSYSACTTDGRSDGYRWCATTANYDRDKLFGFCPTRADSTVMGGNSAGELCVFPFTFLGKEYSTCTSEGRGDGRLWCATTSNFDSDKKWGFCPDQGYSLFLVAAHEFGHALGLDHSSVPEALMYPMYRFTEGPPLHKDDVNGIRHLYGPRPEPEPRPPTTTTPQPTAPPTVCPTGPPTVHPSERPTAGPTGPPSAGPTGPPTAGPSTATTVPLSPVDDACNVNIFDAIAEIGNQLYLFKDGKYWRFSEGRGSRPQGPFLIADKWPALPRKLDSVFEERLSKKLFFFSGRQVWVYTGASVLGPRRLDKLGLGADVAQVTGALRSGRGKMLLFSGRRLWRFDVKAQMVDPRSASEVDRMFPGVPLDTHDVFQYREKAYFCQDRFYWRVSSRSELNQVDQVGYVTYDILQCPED

[4] = DRUGMATRIX: Tumor Necrosis Factor (TNF), Non-Selective radioligand binding (ligand: [125I] TNF-alpha); format: cell membranes, Membrane; conditions: u-937; Not Active = under 50% inhibition at 10 µM
[5] = target: T1, 3-hydroxy-3-methylglutaryl-coenzyme A reductase (Homo sapiens, UniProt P04035); parameters: species or system Escherichia coli;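 also: enzyme inhibition assay of HMG-CoA reductase using radiolabeled [14C]HMG-CoA as substrate; in other assays of this panel Not Active means under 50% inhibition at 10 µM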
T1 sequence (P04035 whole entry): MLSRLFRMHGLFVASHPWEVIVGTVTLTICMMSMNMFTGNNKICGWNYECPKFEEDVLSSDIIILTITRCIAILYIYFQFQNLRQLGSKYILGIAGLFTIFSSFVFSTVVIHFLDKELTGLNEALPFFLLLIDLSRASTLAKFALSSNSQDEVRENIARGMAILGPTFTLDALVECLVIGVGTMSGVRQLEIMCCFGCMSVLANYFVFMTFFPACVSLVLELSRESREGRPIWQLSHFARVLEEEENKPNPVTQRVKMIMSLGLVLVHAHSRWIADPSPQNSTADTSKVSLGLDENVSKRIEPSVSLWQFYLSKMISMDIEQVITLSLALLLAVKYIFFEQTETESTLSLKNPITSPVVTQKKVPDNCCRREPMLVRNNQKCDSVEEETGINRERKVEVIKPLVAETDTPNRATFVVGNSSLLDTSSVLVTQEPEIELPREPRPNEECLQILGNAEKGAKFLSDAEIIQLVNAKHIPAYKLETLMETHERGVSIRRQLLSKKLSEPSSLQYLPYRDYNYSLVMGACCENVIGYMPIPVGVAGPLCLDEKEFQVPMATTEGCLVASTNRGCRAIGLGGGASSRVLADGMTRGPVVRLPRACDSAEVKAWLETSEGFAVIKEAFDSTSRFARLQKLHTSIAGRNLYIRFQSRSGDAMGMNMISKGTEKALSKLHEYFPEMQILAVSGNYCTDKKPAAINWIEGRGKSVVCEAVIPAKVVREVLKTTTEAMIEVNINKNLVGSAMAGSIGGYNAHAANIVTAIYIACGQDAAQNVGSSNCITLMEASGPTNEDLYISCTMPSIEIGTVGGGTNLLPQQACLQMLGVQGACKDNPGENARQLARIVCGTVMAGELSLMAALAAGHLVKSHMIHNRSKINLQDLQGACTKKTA

[6] = target: 5-hydroxytryptamine receptor 1B (Rattus norvegicus, UniProt P28564); format: cell membranes, Wistar, Cerebral cortex, Membrane; also: in other assays of this panel Not Active means under 50% inhibition at 10 µM
Sequence of 5-hydroxytryptamine receptor 1B (P28564 whole entry): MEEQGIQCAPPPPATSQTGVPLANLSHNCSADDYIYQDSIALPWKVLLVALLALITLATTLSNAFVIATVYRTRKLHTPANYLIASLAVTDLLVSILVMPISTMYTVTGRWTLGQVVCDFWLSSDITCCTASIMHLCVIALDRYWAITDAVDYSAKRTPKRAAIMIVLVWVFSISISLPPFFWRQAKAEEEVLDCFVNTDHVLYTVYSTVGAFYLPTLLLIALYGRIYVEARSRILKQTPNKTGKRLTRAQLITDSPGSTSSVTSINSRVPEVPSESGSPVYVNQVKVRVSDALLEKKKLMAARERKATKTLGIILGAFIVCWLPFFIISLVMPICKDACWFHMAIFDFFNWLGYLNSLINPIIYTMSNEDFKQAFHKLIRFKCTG

Sequence of Cytochrome P450 2C9 (P11712 whole entry): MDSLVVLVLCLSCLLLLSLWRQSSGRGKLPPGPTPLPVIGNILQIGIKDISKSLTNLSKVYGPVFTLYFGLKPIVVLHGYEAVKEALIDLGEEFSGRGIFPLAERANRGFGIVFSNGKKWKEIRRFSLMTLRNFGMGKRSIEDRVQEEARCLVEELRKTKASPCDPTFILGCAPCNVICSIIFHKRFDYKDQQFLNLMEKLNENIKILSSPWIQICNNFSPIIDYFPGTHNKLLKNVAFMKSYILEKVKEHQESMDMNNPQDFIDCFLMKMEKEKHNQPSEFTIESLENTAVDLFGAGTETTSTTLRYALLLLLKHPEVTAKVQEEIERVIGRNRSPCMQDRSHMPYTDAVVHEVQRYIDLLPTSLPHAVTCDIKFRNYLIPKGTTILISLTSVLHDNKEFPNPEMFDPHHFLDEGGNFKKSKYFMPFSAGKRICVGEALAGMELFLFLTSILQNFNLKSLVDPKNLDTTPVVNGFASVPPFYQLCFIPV
Sequence of Cytochrome P450 3A4 (P08684 whole entry): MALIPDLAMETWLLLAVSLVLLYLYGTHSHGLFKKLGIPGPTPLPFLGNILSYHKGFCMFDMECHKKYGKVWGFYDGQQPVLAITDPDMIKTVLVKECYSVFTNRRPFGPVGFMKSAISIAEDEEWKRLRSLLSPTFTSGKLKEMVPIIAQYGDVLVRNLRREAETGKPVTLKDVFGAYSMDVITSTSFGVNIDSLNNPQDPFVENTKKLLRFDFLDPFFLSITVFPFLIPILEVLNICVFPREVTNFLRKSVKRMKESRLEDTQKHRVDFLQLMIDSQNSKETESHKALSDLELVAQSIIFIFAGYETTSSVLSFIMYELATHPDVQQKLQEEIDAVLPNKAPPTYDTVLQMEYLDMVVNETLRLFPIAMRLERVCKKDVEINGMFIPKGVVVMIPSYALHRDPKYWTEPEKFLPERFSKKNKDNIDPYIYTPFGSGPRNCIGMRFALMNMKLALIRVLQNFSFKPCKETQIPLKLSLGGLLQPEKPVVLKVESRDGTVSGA

CCN1CCN(C(=O)N[C@@H](C(=O)N[C@@H]2C(=O)N3[C@@H]2SC(C)(C)[C@@H]3C(=O)O)c2ccccc2)C(=O)C1=O [PIPERACILLIN]
Not Active: IC50 (Cytochrome P450 3A4) | Ki (Cytochrome P450 3A4) | IC50 (Cytochrome P450 2C9) | Ki (Cytochrome P450 2C9) | IC50 [1] | IC50 [2] | Ki [2] | IC50 [3] | IC50 [4] | Ki [4] | IC50 [5] | IC50 [6]

NC(N)=Nc1nc(CSCCC(N)=NS(N)(=O)=O)cs1 [FAMOTIDINE]
Not Active: IC50 (Cytochrome P450 3A4) | Ki (Cytochrome P450 3A4) | IC50 (Cytochrome P450 2C9) | Ki (Cytochrome P450 2C9) | IC50 [1] | IC50 [2] | Ki [2] | IC50 [3] | IC50 [4] | Ki [4] | IC50 [5] | IC50 [6]

COc1cc(NC(C)CCCN)c2ncccc2c1 (stereo not drawn) [PRIMAQUINE]
Not Active: IC50 (Cytochrome P450 3A4) | Ki (Cytochrome P450 3A4) | IC50 (Cytochrome P450 2C9) | Ki (Cytochrome P450 2C9) | IC50 [1] | IC50 [2] | Ki [2] | IC50 [3] | IC50 [4] | Ki [4] | IC50 [5] | IC50 [6]

c1ccc2sc(SSc3nc4ccccc4s3)nc2c1 [BENZOTHIAZYL DISULFIDE]
Not Active: IC50 (Cytochrome P450 3A4) | Ki (Cytochrome P450 3A4) | IC50 (Cytochrome P450 2C9) | Ki (Cytochrome P450 2C9) | IC50 [1] | IC50 [2] | Ki [2] | IC50 [3] | IC50 [4] | Ki [4] | IC50 [5] | IC50 [6]

CC(=O)[C@]1(O)Cc2c(O)c3c(c(O)c2[C@@H](O[C@H]2C[C@H](N)[C@H](O)[C@H](C)O2)C1)C(=O)c1ccccc1C3=O [IDARUBICIN]
Not Active: IC50 (Cytochrome P450 3A4) | Ki (Cytochrome P450 3A4) | IC50 (Cytochrome P450 2C9) | Ki (Cytochrome P450 2C9) | IC50 [1] | IC50 [2] | Ki [2] | IC50 [3] | IC50 [4] | Ki [4] | IC50 [5] | IC50 [6]

O=C(O)c1ccccc1 [BENZOIC ACID]
Not Active: IC50 (Cytochrome P450 3A4) | Ki (Cytochrome P450 3A4) | IC50 (Cytochrome P450 2C9) | Ki (Cytochrome P450 2C9) | IC50 [1] | IC50 [2] | Ki [2] | IC50 [3] | IC50 [4] | Ki [4] | IC50 [5] | IC50 [6]

O=C(Nc1ccc(Cl)c(Cl)c1)c1cc(Cl)cc(Cl)c1O [3,3',4',5-TETRACHLOROSALICYLANILIDE]
Not Active: IC50 (Cytochrome P450 3A4) | Ki (Cytochrome P450 3A4) | IC50 (Cytochrome P450 2C9) | Ki (Cytochrome P450 2C9) | IC50 [1] | IC50 [2] | Ki [2] | IC50 [3] | IC50 [4] | Ki [4] | IC50 [5] | IC50 [6]

OC[C@H]1O[C@@H]2O[C@H]3[C@H](O)[C@@H](O)[C@@H](O[C@H]4[C@H](O)[C@@H](O)[C@@H](O[C@H]5[C@H](O)[C@@H](O)[C@@H](O[C@H]6[C@H](O)[C@@H](O)[C@@H](O[C@H]7[C@H](O)[C@@H](O)[C@@H](O[C@H]1[C@H](O)[C@H]2O)O[C@@H]7CO)O[C@@H]6CO)O[C@@H]5CO)O[C@@H]4CO)O[C@@H]3CO [ALFADEX]
Not Active: IC50 (Cytochrome P450 3A4) | Ki (Cytochrome P450 3A4) | IC50 (Cytochrome P450 2C9) | Ki (Cytochrome P450 2C9) | IC50 [1] | IC50 [2] | Ki [2] | IC50 [3] | IC50 [4] | Ki [4] | IC50 [5] | IC50 [6]

CC(=O)Nc1ccc2c(c1)Cc1ccccc1-2 [2-ACETYLAMINOFLUORENE]
Not Active: IC50 (Cytochrome P450 3A4) | Ki (Cytochrome P450 3A4) | IC50 (Cytochrome P450 2C9) | Ki (Cytochrome P450 2C9) | IC50 [1] | IC50 [2] | Ki [2] | IC50 [3] | IC50 [4] | Ki [4] | IC50 [5] | IC50 [6]

CCN1CCN(c2cc3c(cc2F)c(=O)c(C(=O)O)cn3C2CC2)CC1 [ENROFLOXACIN]
Not Active: IC50 (Cytochrome P450 3A4) | Ki (Cytochrome P450 3A4) | IC50 (Cytochrome P450 2C9) | Ki (Cytochrome P450 2C9) | IC50 [1] | IC50 [2] | Ki [2] | IC50 [3] | IC50 [4] | Ki [4] | IC50 [5] | IC50 [6]

O=C(O)CO [GLYCOLIC ACID]
Not Active: IC50 (Cytochrome P450 3A4) | Ki (Cytochrome P450 3A4) | IC50 (Cytochrome P450 2C9) | Ki (Cytochrome P450 2C9) | IC50 [1] | IC50 [2] | Ki [2] | IC50 [3] | IC50 [4] | Ki [4] | IC50 [5] | IC50 [6]

CN(Cc1cc(Br)cc(Br)c1N)C1CCCCC1 [BROMHEXINE]
Not Active: IC50 (Cytochrome P450 3A4) | Ki (Cytochrome P450 3A4) | IC50 (Cytochrome P450 2C9) | Ki (Cytochrome P450 2C9) | IC50 [1] | IC50 [2] | Ki [2] | IC50 [3] | IC50 [4] | Ki [4] | IC50 [5] | IC50 [6]

CC12CCC(CC1)C(C)(C)O2 [EUCALYPTOL]
Not Active: IC50 (Cytochrome P450 3A4) | Ki (Cytochrome P450 3A4) | IC50 (Cytochrome P450 2C9) | Ki (Cytochrome P450 2C9) | IC50 [1] | IC50 [2] | Ki [2] | IC50 [3] | IC50 [4] | Ki [4] | IC50 [5] | IC50 [6]

C[C@@H]1[C@H](O)[C@@H](C)/C=C/C=C/C=C/C=C/C=C/C=C/C=C/[C@H](O[C@@H]2O[C@H](C)[C@@H](O)[C@H](N)[C@@H]2O)C[C@@H]2O[C@](O)(C[C@@H](O)C[C@@H](O)[C@H](O)CC[C@@H](O)C[C@@H](O)CC(=O)O[C@H]1C)C[C@H](O)[C@H]2C(=O)O [AMPHOTERICIN B]
Not Active: IC50 (Cytochrome P450 3A4) | Ki (Cytochrome P450 3A4) | IC50 (Cytochrome P450 2C9) | Ki (Cytochrome P450 2C9) | IC50 [1] | IC50 [2] | Ki [2] | IC50 [3] | IC50 [4] | Ki [4] | IC50 [5] | IC50 [6]
